One compound from ChEMBL document CHEMBL2203020, “Development of Synthetic Aminopeptidase N/CD13 Inhibitors to Overcome Cancer Metastasis and Angiogenesis” (ACS Med Chem Lett, 2012) can be followed below.

Calls of active or inactive are those of the source. The calls are words filed in the database; no cut-off is given here.

For data set [1], the target named is T1, Aminopeptidase N (Mus musculus, UniProt P97449).
T1 sequence (P97449 whole entry): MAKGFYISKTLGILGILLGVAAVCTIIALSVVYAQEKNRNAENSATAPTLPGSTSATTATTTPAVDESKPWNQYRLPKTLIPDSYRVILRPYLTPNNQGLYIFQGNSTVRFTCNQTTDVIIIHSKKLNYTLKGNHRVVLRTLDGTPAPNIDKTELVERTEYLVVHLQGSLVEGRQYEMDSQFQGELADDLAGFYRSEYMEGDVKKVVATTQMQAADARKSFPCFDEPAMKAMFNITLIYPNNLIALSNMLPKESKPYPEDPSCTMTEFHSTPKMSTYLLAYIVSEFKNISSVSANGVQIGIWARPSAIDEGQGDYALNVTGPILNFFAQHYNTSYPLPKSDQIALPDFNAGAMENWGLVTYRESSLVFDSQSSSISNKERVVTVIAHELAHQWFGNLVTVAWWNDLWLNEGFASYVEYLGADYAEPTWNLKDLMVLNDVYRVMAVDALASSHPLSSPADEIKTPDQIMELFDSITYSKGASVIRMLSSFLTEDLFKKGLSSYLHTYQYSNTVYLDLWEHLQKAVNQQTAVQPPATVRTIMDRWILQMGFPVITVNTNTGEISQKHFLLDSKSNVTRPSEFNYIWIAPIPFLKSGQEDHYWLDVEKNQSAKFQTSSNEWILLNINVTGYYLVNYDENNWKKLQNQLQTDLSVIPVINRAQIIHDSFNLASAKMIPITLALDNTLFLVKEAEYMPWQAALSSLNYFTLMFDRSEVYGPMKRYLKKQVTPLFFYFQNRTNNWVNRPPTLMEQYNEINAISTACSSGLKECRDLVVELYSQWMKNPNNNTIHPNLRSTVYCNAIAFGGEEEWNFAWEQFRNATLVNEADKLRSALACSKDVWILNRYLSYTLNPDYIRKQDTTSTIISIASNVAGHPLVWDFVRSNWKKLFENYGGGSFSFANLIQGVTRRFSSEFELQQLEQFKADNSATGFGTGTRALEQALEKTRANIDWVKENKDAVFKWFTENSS
Nature of the data set: Inhibition of APN in mouse B16-BL6 cell surface assessed as inhibition of L-Leu-p-nitroanilide substrate hydrolysis incubated for 5 mins before substrate addition by UV-Vis spectrophotometric analysis.

The next data set relates to HUVEC. The experiment in a line: Antiangiogenesis activity against HUVEC assessed as decrease in capillary tubular structure formation at 25 ug/ml after 8 hrs by microscopic analysis. Format: functional, cell-based. The note with it: Homo sapiens.
Data set [2] concerns ES2. The experiment in a line: Inhibition of human ES2 cell migration at 150 uM by crystal violet staining based microscopic analysis. Format: functional.
The target of data set [3] is T1, Aminopeptidase N. The experiment in a line: Inhibition of mouse APN.
A further data set deals with B16-BL6. Nature of the data set: Antiangiogenic activity against mouse B16-BL6 cells xenografted in C57BL/6 mouse assessed as decrease in number of vessels oriented towards the tumor mass at 100 mg/kg/day, ip administered for 4 days measured on day 5 by dissecting microscopic analysis. The data set is classed as functional, organism-based.
The nature of data set [4]: Cytotoxicity against human ES2 cells assessed as cell growth inhibition rate at 50 ug/ml after 24 hrs by MTT assay. Format: cell-based. The settings on record: read-out: GI. In general terms: Tetrazolium assays rely on reduction of a dye to a coloured formazan, in cell work by metabolically active cells.
Data set [5] in a line: Cytotoxicity against mouse B16-BL6 cells assessed as cell growth inhibition after 24 hrs by MTT assay. Format: cell-based.
Data set [6] has as its system ES2. Nature of the data set: Inhibition of human ES2 cell invasion at 15 to 150 uM after 8 hrs by Matrigel invasion assay. The data set is classed as functional, cell-based.
Data set [7] deals with 72 kDa type IV collagenase (Homo sapiens, UniProt P08253). Nature of the data set: Inhibition of recombinant MMP-2 using succinylated gelatin as substrate incubated for 10 mins before addition of substrate measured after 60 mins by UV-Vis spectrophotometric analysis.
Sequence of 72 kDa type IV collagenase (P08253 whole entry): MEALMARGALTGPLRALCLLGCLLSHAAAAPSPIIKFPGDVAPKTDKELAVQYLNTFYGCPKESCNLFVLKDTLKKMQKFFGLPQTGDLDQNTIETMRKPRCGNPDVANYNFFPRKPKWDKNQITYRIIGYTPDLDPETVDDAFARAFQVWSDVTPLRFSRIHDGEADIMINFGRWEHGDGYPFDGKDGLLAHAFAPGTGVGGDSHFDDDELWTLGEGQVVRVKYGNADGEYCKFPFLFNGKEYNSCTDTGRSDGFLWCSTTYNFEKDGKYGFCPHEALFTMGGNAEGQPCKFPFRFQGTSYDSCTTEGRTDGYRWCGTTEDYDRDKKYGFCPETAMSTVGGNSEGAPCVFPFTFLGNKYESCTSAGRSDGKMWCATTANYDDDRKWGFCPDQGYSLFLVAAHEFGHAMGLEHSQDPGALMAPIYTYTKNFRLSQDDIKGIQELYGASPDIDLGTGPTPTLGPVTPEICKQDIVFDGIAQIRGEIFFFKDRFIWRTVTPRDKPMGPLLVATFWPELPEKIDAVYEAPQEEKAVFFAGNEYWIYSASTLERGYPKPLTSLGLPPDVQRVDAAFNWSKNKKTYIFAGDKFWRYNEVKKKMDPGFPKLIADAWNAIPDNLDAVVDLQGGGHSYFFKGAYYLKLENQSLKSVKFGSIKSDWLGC
Data set [8] is described as follows: Cytotoxicity against human ES2 cells assessed as cell growth inhibition rate at 5 ug/ml after 24 hrs by MTT assay. Format: cell-based. The settings on record: read-out: GI.

The term IC50 denotes the concentration that inhibits the measured activity by half. The term Ki denotes the equilibrium dissociation constant of an inhibitor or competing ligand from its target. Low values mean tighter binding, high ones weaker binding. By GI50 is commonly meant the concentration that inhibits growth by half.

In the case of `CC(C)C[C@H](NC(=O)[C@@H](O)[C@H](N)Cc1ccccc1)C(=O)O` [UBENIMEX], the IC50 is 23.2 µM at Aminopeptidase N [1] and 276 µM in data set [7]. The outcome in the data set on HUVEC and in the data set with B16-BL6 was Active. Also, the inhibition entry with ES2 [2] and with ES2 [6] was “Active” in each case. At Aminopeptidase N [3], this compound yielded a Ki of 3.03 µM. Further, in data set [4], the inhibition at 24 h, 50 ug/ml is 2.89%. Further, the GI50 at 24 h in data set [5] is > 500 µM. The inhibition at 24 h, 5 ug/ml in data set [8] was < 1%.
